Results: PubChem BioAssay (NCI)
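In this assay, cells in 96-well plates receive the compound at five concentrations for 48 hours. Endpoints are linearly interpolated between the surrounding concentrations. At the GI50, growth is halved. TGI is the concentration that stops growth completely.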

How the values were obtained:
Assay in all cases: NCI-60 cell line screen, 48 h
RPMI-8226 leukemia = test system: RPMI-8226 leukemia
786-0 renal = test system: 786-0 renal
SNB-19 CNS = test system: SNB-19 CNS
IGROV1 ovarian = test system: IGROV1 ovarian
OVCAR-4 ovarian = test system: OVCAR-4 ovarian
NCI-H460 lung = test system: NCI-H460 lung
MDA-MB-231 breast = test system: MDA-MB-231 breast
OVCAR-8 ovarian = test system: OVCAR-8 ovarian
SK-MEL-5 melanoma = test system: SK-MEL-5 melanoma
EKVX NSCLC = test system: EKVX NSCLC

Row | Compound | TGI (RPMI-8226 leukemia) | TGI (786-0 renal) | TGI (SNB-19 CNS) | TGI (IGROV1 ovarian) | TGI (OVCAR-4 ovarian) | TGI (NCI-H460 lung) | GI50 (MDA-MB-231 breast) | TGI (MDA-MB-231 breast) | GI50 (RPMI-8226 leukemia) | GI50 (786-0 renal) | GI50 (OVCAR-8 ovarian) | TGI (OVCAR-8 ovarian) | GI50 (SNB-19 CNS) | GI50 (SK-MEL-5 melanoma) | TGI (SK-MEL-5 melanoma) | GI50 (IGROV1 ovarian) | GI50 (OVCAR-4 ovarian) | GI50 (NCI-H460 lung) | GI50 (EKVX NSCLC) | TGI (EKVX NSCLC)
1 | N#Cc1ccc2cc3c(cc2c1)OCO3 | > 100 µM | > 100 µM | > 100 µM | > 100 µM | > 100 µM | > 100 µM | – | – | – | – | – | – | – | – | – | – | – | – | – | –
2 | O=C(C[P+](c1ccccc1)(c1ccccc1)c1ccccc1)C[P+](c1ccccc1)(c1ccccc1)c1ccccc1 | 1.81 µM | 1.16 µM | 2.78 µM | 2.56 µM | 0.269 µM | 2.3 µM | 0.32 µM | 1.4 µM | 0.271 µM | 0.496 µM | 0.318 µM | 2.31 µM | 1.31 µM | 0.625 µM | 1.8 µM | 0.774 µM | 0.135 µM | 0.546 µM | – | –
3 | C#COc1cccc(Nc2ncnc3cc(NC(=O)[C@H](C)Cl)ccc23)c1 | > 62.5 µM | > 62.5 µM | > 62.5 µM | > 62.5 µM | – | > 62.5 µM | 3.75 µM | > 62.5 µM | 3.52 µM | 3.24 µM | 4.5 µM | > 62.5 µM | 4.72 µM | 1.39 µM | 3.54 µM | 2.35 µM | – | 2.18 µM | 17.4 µM | > 62.5 µM
4 | C#CCN(C(=O)C(F)(F)F)c1ccc(C(=O)c2ccc(N(CC#C)C(=O)C(F)(F)F)cc2)cc1 | 51.2 µM | > 100 µM | > 100 µM | > 100 µM | > 100 µM | > 100 µM | – | – | – | – | – | > 100 µM | – | – | > 100 µM | – | – | – | – | > 100 µM
5 | COc1cc(NCCN=C(N)NC(N)=NC(C)C)c2ncccc2c1 | > 76.4 µM | > 100 µM | > 100 µM | > 24.8 µM | 1.23 µM | > 57.6 µM | 3.17 µM | 21.4 µM | 15.5 µM | > 88.8 µM | 22.6 µM | > 100 µM | 9.18 µM | 3.4 µM | 11.7 µM | 1.37 µM | 0.0708 µM | 5.67 µM | – | –
6 | COc1ccc(C2C=C(c3ccc(Cl)cc3)N=C3SC=C(C)N32)c(Br)c1 (stereo not drawn) | 9.67 µM | 25.4 µM | 21.7 µM | 20.4 µM | 34.6 µM | 5.87 µM | 4.72 µM | 22.1 µM | 2.18 µM | 3.57 µM | 3.32 µM | 50.7 µM | 5.25 µM | 2.8 µM | 11.2 µM | 3.62 µM | 3.89 µM | 2.24 µM | – | –
7 | C=C(C)C(=O)O[C@@H]1C/C(C)=C\[C@H](OC(C)=O)C[C@](C)(O)/C=C2/OC(=O)C(COC(C)=O)=C21 | 1.73 µM | 6.03 µM | 41.8 µM | 3 µM | – | 2.35 µM | – | 2.63 µM | – | – | – | 2.75 µM | – | – | 8.4 µM | – | – | – | – | 2.07 µM
8 | O=c1[nH]c(=O)n(C2CC(O)C(CO)O2)cc1C#Cc1ccc(F)cc1 (stereo not drawn) | > 100 µM | > 100 µM | > 100 µM | > 100 µM | > 100 µM | > 100 µM | – | – | – | – | – | > 100 µM | – | – | > 100 µM | – | – | – | – | > 100 µM
9 | COC(=O)/C=c1\s/c(=C\C(=O)OC)c2ccccc12 | > 100 µM | > 100 µM | > 100 µM | > 100 µM | > 100 µM | – | – | – | – | – | – | > 100 µM | – | – | > 100 µM | – | – | – | – | > 100 µM
10 | CCCCCCCC(=O)OCC(=O)[C@]1(O)Cc2c(O)c3c(c(O)c2[C@@H](OC2CC(N)C(O)C(C)O2)C1)C(=O)c1c(OC)cccc1C3=O (stereo partly drawn) | – | 1.25 µM | 1.25 µM | – | – | 0.196 µM | 0.578 µM | 2.17 µM | – | 0.0622 µM | – | – | 0.0601 µM | 0.0427 µM | 0.185 µM | – | – | – | 0.236 µM | 1.58 µM
11 | CCOC(=O)/C(=C/c1ccc(N(CCC#N)CCC#N)cc1C)NC(=O)/C=C/c1ccccc1 | > 100 µM | > 100 µM | > 100 µM | > 100 µM | – | > 100 µM | – | – | – | – | – | > 100 µM | – | – | > 100 µM | – | – | – | – | > 100 µM
12 | Cc1cc(=O)[nH]c(CNC(=O)c2cccc(C(=O)NCc3cc(=O)[nH]c(C)n3)c2)n1 | > 100 µM | > 100 µM | > 100 µM | > 100 µM | > 100 µM | > 100 µM | – | – | – | – | – | > 100 µM | – | – | > 100 µM | – | – | – | – | > 100 µM
13 | CCOC(=O)C1([Se]c2ccccc2)CCCC1=O (stereo not drawn) | 55.4 µM | 28.4 µM | > 100 µM | 78.4 µM | 36.8 µM | > 100 µM | – | – | – | – | – | 30.5 µM | – | – | 58 µM | – | – | – | – | 86.8 µM
14 | O=C1C2C3C=C4c5ccccc5N(c5ccccc5)C4(C2C(=O)N1c1ccc(Br)cc1)[C@H]1C(=O)N(c2ccc(Br)cc2)C(=O)[C@@H]31 (stereo partly drawn) | > 100 µM | > 100 µM | > 100 µM | > 100 µM | > 100 µM | > 100 µM | – | – | – | – | – | > 100 µM | – | – | > 100 µM | – | – | – | – | > 100 µM
15 | COc1cccc(/C(C)=N/NC(=O)CSc2nc3ccccc3c(=O)n2CCc2ccc(S(N)(=O)=O)cc2)c1 | > 100 µM | 3.95 µM | 7.87 µM | 24.4 µM | 4.28 µM | – | 2.23 µM | 5.06 µM | 0.943 µM | 1.47 µM | 2.32 µM | 4.88 µM | 2.89 µM | 2.03 µM | 4.24 µM | 5.09 µM | 1.85 µM | – | 5.81 µM | 33.9 µM
16 | Cc1nc2sccn2c1C(=O)NC(=O)Nc1ccc(Cl)cc1 | > 100 µM | > 100 µM | > 100 µM | > 100 µM | > 100 µM | > 100 µM | – | – | – | – | – | > 100 µM | – | – | > 100 µM | – | – | – | – | > 100 µM
17 | CC[N+](C)(CC)CC(C)(C)C(=O)/C=C/c1ccc(/C=C/C(=O)C(C)(C)C[N+](C)(CC)CC)cc1 | > 100 µM | > 100 µM | > 100 µM | > 100 µM | > 100 µM | > 100 µM | – | – | – | – | – | > 100 µM | – | – | > 100 µM | – | – | – | – | > 100 µM
18 | COC1C2c3cc4c(cc3CC(C#N)(c3ccccc32)N1C(=O)c1ccccc1)OCO4 (stereo not drawn) | > 100 µM | > 100 µM | > 100 µM | > 100 µM | – | > 100 µM | – | – | – | – | – | > 100 µM | – | – | > 100 µM | – | – | – | – | > 100 µM
